According to the supplement of paper PMC4862054:

Experiments:
Conditions in all cases: incubation time: 72 h
HCC1143 [1] = test: drug sensitivity score (DSS), CellTiter-Glo (DSS (AUC-based score)); higher = stronger drug effect (viability inhibition or cytotoxicity); extreme values may be limits of the assay
How it was run: (§1)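 Each compound occupied 5 concentrations in 10-fold steps over its own 10,000-fold range in 384-well plates, into which breast cancer cell lines were seeded as 20 µl suspension. Following 72 h of incubation, CellTox Green fluorescence (485/520 nm) was measured, and CellTiter-Glo luminescence was measured after 10 min at room temperature. Plates were individually normalised to 0.1 % DMSO and a positive kill control. From the area under the fitted dose-response curve, a drug sensitivity score was calculated.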

Hs578T [2] = test: as above
How it was run: as §1

MDA-MB-453 [3] = test: as above
How it was run: as §1

HCC1937 [4] = test: as above
How it was run: as §1

CAL-120 [5] = test: as above
How it was run: as §1

DU-4475 [6] = test: as above
How it was run: as §1

MDA-MB-436 [7] = test: as above
How it was run: as §1

MDA-MB-231 [8] = test: as above
How it was run: as §1

CAL-51 [9] = test: as above
How it was run: as §1

MFM-223 [10] = test: as above
How it was run: as §1

HCC1599 [11] = test: as above
How it was run: as §1

HCC1143 [12] = test: drug sensitivity score (DSS), CellTox Green (DSS (AUC-based score)); higher = stronger drug effect (viability inhibition or cytotoxicity); extreme values may be limits of the assay
How it was run: as §1

Hs578T [13] = test: as above
How it was run: as §1

MDA-MB-453 [14] = test: as above
How it was run: as §1

HCC1937 [15] = test: as above
How it was run: as §1

CAL-120 [16] = test: as above
How it was run: as §1

HDQ-P1 = test: as above
How it was run: as §1

DU-4475 [17] = test: as above
How it was run: as §1

MDA-MB-436 [18] = test: as above
How it was run: as §1

MDA-MB-231 [19] = test: as above
How it was run: as §1

CAL-148 = test: as above
How it was run: as §1

CAL-51 [20] = test: as above
How it was run: as §1

MFM-223 [21] = test: as above
How it was run: as §1

BT-549 = test: as above
How it was run: as §1

MCF-10A = test: as above
How it was run: as §1

HCC1599 [22] = test: as above
How it was run: as §1

BT-474 = test: as above
How it was run: as §1

Compound	drug sensitivity score (HCC1143 [1])	drug sensitivity score (Hs578T [2])	drug sensitivity score (MDA-MB-453 [3])	drug sensitivity score (HCC1937 [4])	drug sensitivity score (CAL-120 [5])	drug sensitivity score (DU-4475 [6])	drug sensitivity score (MDA-MB-436 [7])	drug sensitivity score (MDA-MB-231 [8])	drug sensitivity score (CAL-51 [9])	drug sensitivity score (MFM-223 [10])	drug sensitivity score (HCC1599 [11])	drug sensitivity score (HCC1143 [12])	drug sensitivity score (Hs578T [13])	drug sensitivity score (MDA-MB-453 [14])	drug sensitivity score (HCC1937 [15])	drug sensitivity score (CAL-120 [16])	drug sensitivity score (HDQ-P1)	drug sensitivity score (DU-4475 [17])	drug sensitivity score (MDA-MB-436 [18])	drug sensitivity score (MDA-MB-231 [19])	drug sensitivity score (CAL-148)	drug sensitivity score (CAL-51 [20])	drug sensitivity score (MFM-223 [21])	drug sensitivity score (BT-549)	drug sensitivity score (MCF-10A)	drug sensitivity score (HCC1599 [22])	drug sensitivity score (BT-474)
Cn1c(=O)n(-c2ccc(C(C)(C)C#N)cc2)c2c3cc(-c4cnc5ccccc5c4)ccc3ncc21 [Dactolisib]	12.7	14.9	14.7	9.76	17.9	11.4	11.8	11.7	16.8	13.4	2.8	0	0	0	7.09	0	0	0	0	0	11.7	0	2.01	0	0	0	0
Cc1ccc(NC(=O)c2ccc(CN3CCN(C)CC3)cc2)cc1Nc1nccc(-c2cccnc2)n1 [Imatinib]	0	0	0.32	0	0	0	0	0	1.42	0	0	0	0.401	6.17	0	0	0	0	0	0	0	0	0	0	0	0	0
CN(C)CCN1C(=O)c2cccc3cc(N)cc(c23)C1=O [Amonafide]	1.61	2.97	0	2.35	3.03	5.38	2.32	3.06	2.87	0.47	0.856	0	0	0	0	0	0	0	11.2	0	2.89	2.42	0	0	0	0	0
CC(C)c1c(C(=O)Nc2ccccc2)c(-c2ccccc2)c(-c2ccc(F)cc2)n1CC[C@@H](O)C[C@@H](O)CC(=O)O [Atorvastatin]	1.92	1.59	0.00416	1	4.42	0	0	10.1	6.03	0	0	0	4.71	0.0639	0	1.49	0	0	0	13.1	0	13.9	0	0	8.07	0	0
